# Test results from patent publication US9326970B2, “Choline esters” (Encore Health, LLC, priority 2009, dated 2016).
# How the values were obtained:
# [1] = tested on: human umbilical vein endothelial cells (HUVEC, first passage); assay: In vitro toxicology: cell viability (MultiTox-Fluor or Live/Dead assay); type: cell-based; conditions: doses ranging from 0.1 μM to 100 μM
# Description: Cell viability was determined using human umbilical vein endothelial cells (HUVEC, first passage). Cells were treated with the active agent in doses ranging from 0.1 μM to 100 μM. The number of live and dead cells was determined using the MultiTox-Fluor assay (Promega) or Live/Dead® assay (Invitrogen). Logistic plots were used to determine the compound's LD50 value. Lipoic acid was not cytotoxic the concentration range.
# mouse lenses = assay: Increase in elasticity: lens organ culture, change in lens diameter under coverslip (ΔD)
# From the text: FIG. 4 depicts a scatter plot of the change in ΔD (micrometers) in the absence (control) and presence of lipoic acid in lens organ culture experiments. […] Statistical values are highly significant at p<0.0001 by unpaired t-test and by Kruskal Wallis test, which compared medians of each data set. The relative change in Young's modulus (E) can be calculated as the cubic value derived from the ΔD of the control divided by the ΔD of the experimental or E fractional change=(ΔD con/ΔDexp)^3.
# Increase in Elasticity: Pairs of mouse lenses were incubated in medium 200 supplemented with an antibiotic, an antimycotic, the presence or absence of lipoic acid (concentrations ranging from 0.5 μM to 500 μM) for 8-15 hours. Each lens was removed from medium, weighed, and photographed on a micrometer scale. A coverslip of known weight (0.17899±0.00200 g) was placed on the lens, and the lens was photographed again on the micrometer scale. The diameter of each lens with and without the coverslip was determined from the photographs. The change in lens diameter produced by the force (coverslip) was computed ΔD=(Dwithcoverslip−Dwithoutcoverslip).
# [2] = tested on: protein disulfides in the mouse lenses; assay: Decrease in disulfide bonds: protein SH/SS groups in lens homogenates
# Description: FIG. 5 depicts a scattergram of the percent of the total protein SH groups in disulfide bonds. Free SH groups were alkylated with 4-acetamido-4′-maleimidylstilbene-2,2′-sulfonic acid (c, 1 μM, 5 μM, 9.6 μM, 50 μM, 96 μM) or 7-diethylamino-3-(4′maleimidylphenyl)-4-methyl coumarin (500 μM, and 500 μM c). Following removal of the first alkylating agent, the S—S bonds were reduced and alkylated with fluorescein-5-maleimide. Absorption spectra were used to calculated total protein (A280 nm), free protein SH (A322 or A384), and protein SS (A490) using the appropriate extinction coefficients. The symbol ‡ indicates statistically significant difference of mean with mean of control (c, p≦0.05).
# Mouse lenses were homogenized in a denaturing buffer containing a fluorescent alkylating agent to modify the free SH groups. After removing the alkylating agent homogenates were reduced and alkylated with a different fluorescent alkylating agent. Absorption spectra of the modified proteins were used to calculate free protein SH and protein SS groups.
smiles,measurement,setting,value
"O=C(O)CCCCC1CCSS1 (centres unmarked) [Lipoic acid, 5-(1,2-dithiolan-3-yl)pentanoic acid]","cytotoxicity (cell viability, LD50 from logistic plots)",[1],not cytotoxic
same,"change in ΔD (micrometers) compared to controls, FIG. 4","mouse lenses; lens organ culture, data sets marked ‡, p<0.0001 by unpaired t-test and Kruskal Wallis test",significantly larger changes in ΔD
same,change in ΔD (lens diameter with coverslip minus without),"mouse lenses; lipoic acid at concentrations ≧9.6 μM, 8-15 hours incubation, vs control, p<0.0001",statistically significant increase in ΔD
same,"percent of the total protein SH groups in disulfide bonds, FIG. 5","[2]; 500 μM lipoic acid vs 500 μM control, p=0.027",significantly different
same,protein disulfides,"[2]; lipoic acid at concentrations ≧9.6 μM, mouse lenses with a significant increase in ΔD",statistically significant decrease in protein disulfides
